Data published in patent EP2662081A1, “Therapeutic use of indole-dihydro-imidazole derivatives” (NOSCIRA, S.A., priority 2012, dated 2013).

What was measured:
[1] = biological target: T1, human recombinant Cdk5/p35 heterodimer (Homo sapiens, UniProt Q00535); assay: Cdk5 assay (Z'-LYTE FRET enzymatic activity); assay type: biochemical; conditions: 10 nM enzyme, 12.5 µM ATP, 2 µM Ser/Thr 12 peptide, 60 min at room temperature; concentration in M units; read-out: Cdk5 inhibition pEC50 average (converted)
T1 construct: purchased Invitrogen (Life Technologies)
Procedure: The enzymatic activity of Cdk5 was determined with a commercial system based on the Z'-LYTE® technology, available from Life Technologies (Carlsbad, CA, USA), using human recombinant Cdk5/p35 heterodimer, also available from Invitrogen as the enzyme source. This technology utilizes the fluorescence resonance energy transfer ("FRET") process between fluorescein and coumarin. The assay principle is based on the differential sensitivity of phosphorylated and non-phosphorylated peptide to proteolytic cleavage, which precludes the energy transfer process between the two fluorophores attached to both sides of the cleavage site. […] The assay is performed in 384-well black plates, in a final volume of 10 µl, with 10 nM enzyme concentration, in 50 mM Hepes pH 7.5, 50 mM MgCl2, 5 mM EGTA and 0.05% Brij-35, using 12.5 µM ATP and 2 µM substrate peptide. The latter is a synthetic peptide provided by Invitrogen, under the commercial name "Ser/Thr 12 peptide", and it is based upon the sequence of Cdk7, containing Ser-164 and a (Ser/Thr)-Pro-X-(Lys/Arg) consensus sequence, wherein X is any residue. The peptide is labeled at both ends with fluorescein and coumarin. The assay is carried out in the presence of different concentrations of the tested compound, at a final 1% (v/v) DMSO concentration. After a 60 min incubation, at room temperature, 5 µl of a commercial protease solution (sold by the same vendor in the assay kit) is added and a subsequent 1h incubation at room temperature is performed, before adding 5 µl of a suitable "stop solution", also provided by the vendor in the kit. After that, fluorescence intensity is recorded, monitoring emission at both 445 and 520 nm, upon excitation at 400 nm. An emission ratio is finally calculated, using the quotient among the emission at 445 nm divided by that at 520 nm.
The emission ratio of each tested sample is normalized to that of the control wells, so that for every compound concentration the percentage of inhibition is calculated by using the following equation: % Inhibition = 100⋅(E-S)/(E-B) [formula] where "S" is the emission from the wells with the tested sample, "E" is the average emission from control wells with full enzyme activity and "B" is the average emission from wells with full enzyme inhibition. Inhibition values obtained for every compound concentration are finally used to calculate the pEC50 of the tested compound, this parameter being the negative value of the logarithm of the compound concentration, in M units, causing 50% of its maximum effect (i.e., the higher the pEC50 value the higher the potency of the compound). For that purpose the data were fitted to the following equation using the nonlinear regression function of GraphPad™ Prism 5.0 (GraphPad Software Inc.): % Inhibition = L + (H-L)/(1 + 10^(((logC+pEC50))^N)) [formula] where "L" is the lower asymptote of the theoretical sigmoidal curve, "H" is the higher asymptote, "C" is the concentration of compound in M units and "N" is the Hill coefficient.

[2] = biological target: T2, human recombinant GSK3β (N-terminal 6His-tagged recombinant enzyme with an H350L mutation) (Homo sapiens, UniProt P49841); assay: GSK-3 assay (Z'-LYTE FRET enzymatic activity); assay type: biochemical; conditions: 2 nM enzyme, 12.5 µM ATP, 2 µM Ser/Thr 9 peptide, 60 min at room temperature; concentration in M units; read-out: GSK-3 inhibition pEC50 average (converted)
T2 construct: 6His (N); purchased Millipore (Billerica, MA, USA)
Procedure: The enzymatic activity of GSK3β was determined with a commercial system based on the Z'-LYTE® technology, available from Life Technologies (Carlsbad, CA, USA), using human recombinant GSK3β (N-terminal 6His-tagged recombinant enzyme with an H350L mutation) from Millipore (Billerica, MA, USA) as the enzyme source. This technology utilizes the fluorescence resonance energy transfer ("FRET") process between fluorescein and coumarin. The assay principle is based on the differential sensitivity of phosphorylated and non-phosphorylated peptide to proteolytic cleavage, which precludes the energy transfer process between the two fluorophores attached to both sides of the cleavage site. […] The assay is performed in 384-well black plates, in a final volume of 10 µl, with 2 nM enzyme concentration in 50 mM Hepes pH 7.5, 50 mM MgCl2, 5 mM EGTA and 0.05% Brij-35, using 12.5 µM ATP and 2 µM substrate peptide. The latter is a synthetic peptide, provided by Invitrogen under the commercial name "Ser/Thr 9 peptide", and it is based upon the sequence of a GSK3β substrate protein (glycogen synthase I) containing Ser-641. The peptide is labeled at both ends with fluorescein and coumarin. The assay is carried out in the presence of different concentrations of the tested compound, at a final 1 % (v/v) DMSO concentration. After a 60 min incubation at room temperature, 5 µl of a commercial protease solution (sold by the same vendor in the assay kit) is added and a subsequent 1h incubation at room temperature is performed, before adding 5 µl of a suitable "stop solution", also provided by the vendor in the kit. After that, fluorescence intensity is recorded, monitoring emission at both 445 and 520 nm, upon excitation at 400 nm. An emission ratio is finally calculated, using the quotient among the emission at 445 nm divided by that at 520 nm.
The emission ratios for each concentration of compound are finally used to calculate the pEC50 value, according to the procedure described above for Cdk5.

T1 sequence (Q00535 whole entry): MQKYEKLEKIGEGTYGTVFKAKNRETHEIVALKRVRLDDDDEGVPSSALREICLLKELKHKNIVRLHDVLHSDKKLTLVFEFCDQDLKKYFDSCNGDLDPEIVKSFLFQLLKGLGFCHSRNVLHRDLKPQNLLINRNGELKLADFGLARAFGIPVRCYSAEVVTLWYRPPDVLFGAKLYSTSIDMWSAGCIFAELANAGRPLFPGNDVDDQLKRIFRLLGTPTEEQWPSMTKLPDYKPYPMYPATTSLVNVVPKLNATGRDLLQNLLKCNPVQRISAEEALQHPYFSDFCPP
T1 sequence (Q15078 whole entry partner): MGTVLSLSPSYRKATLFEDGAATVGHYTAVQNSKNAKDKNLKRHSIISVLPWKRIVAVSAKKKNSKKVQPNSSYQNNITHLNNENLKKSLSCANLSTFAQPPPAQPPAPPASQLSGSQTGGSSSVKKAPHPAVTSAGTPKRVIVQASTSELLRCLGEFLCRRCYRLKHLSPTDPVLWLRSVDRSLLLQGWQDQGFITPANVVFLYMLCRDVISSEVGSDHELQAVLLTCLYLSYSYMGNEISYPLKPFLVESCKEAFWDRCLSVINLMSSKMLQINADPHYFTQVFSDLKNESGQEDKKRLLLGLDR
T2 sequence (P49841 whole entry, stated change not applied): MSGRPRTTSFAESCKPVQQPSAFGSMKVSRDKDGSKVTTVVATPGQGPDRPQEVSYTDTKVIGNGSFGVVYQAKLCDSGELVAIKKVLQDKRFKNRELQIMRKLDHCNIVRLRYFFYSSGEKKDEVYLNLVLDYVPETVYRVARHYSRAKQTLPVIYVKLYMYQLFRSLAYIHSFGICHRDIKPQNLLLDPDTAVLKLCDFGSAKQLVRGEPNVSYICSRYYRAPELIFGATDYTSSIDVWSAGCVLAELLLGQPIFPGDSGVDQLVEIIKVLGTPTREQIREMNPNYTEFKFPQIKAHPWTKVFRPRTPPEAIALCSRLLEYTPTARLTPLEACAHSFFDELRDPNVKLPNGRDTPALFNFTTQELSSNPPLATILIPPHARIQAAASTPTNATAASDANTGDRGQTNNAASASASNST

CN1CC(c2c(C(=O)O)[nH]c3ccc(Br)cc23)N(C)C1=N (centres unmarked) [Compound 2]
EC50 [1]: 2820 nM | EC50 [2]: 74.1 µM

CN1C(N)=NCC1c1c(C(=O)O)[nH]c2ccccc12 (centres unmarked) [Compound 7]
EC50 [1]: 933 nM | EC50 [2]: 42.7 µM

CN1CC(c2c(C(=O)O)[nH]c3cc(O)c(Br)cc23)N(C)C1=N (centres unmarked) [Compound 4]
EC50 [1]: 74.1 nM | EC50 [2]: 15.5 µM

CN1C(=N)N(C)C(c2c(C(=O)O)[nH]c3cc(O)c(Br)cc23)C1O (centres unmarked) [Compound 6]
EC50 [1]: 49 nM | EC50 [2]: 8.32 µM

CN1C(=N)N(C)C(c2c(C(=O)O)[nH]c3ccc(Br)cc23)C1O (centres unmarked) [Compound 5]
EC50 [1]: 3090 nM | EC50 [2]: 97.7 µM

CN1C(=N)NCC1c1c(C(=O)O)[nH]c2ccc(Br)cc12 (centres unmarked) [Compound 1]
EC50 [1]: 1100 nM | EC50 [2]: 35.5 µM

CN1C(=N)NCC1c1c(C(=O)O)[nH]c2cc(O)c(Br)cc12 (centres unmarked) [Compound 3]
EC50 [1]: 95.5 nM | EC50 [2]: 11.2 µM
